# Patent US6753310B1, “Neovascular-specific peptides” (Otsuka Pharmaceutical Co., Ltd., priority 1998, dated 2004)
# System: Meth A sarcoma
# Assay: Antitumor effect of adriamycin-including peptide-modified liposomes, tail vein administration
# Type: in vivo, BALB/c mice
# Details: FIG. 15; after three tail vein administrations on days 6, 9 and 12
# Description: Solid tumor-bearing mice were prepared by subcutaneously administering Meth A sarcoma cells (1×10^6 cells/mouse) into the left flank of five-week-old BALB/c male mice (Japan SLC). The day of implantation was taken as day 1 and, on days 6, 9 and 12, the 0.3 M glucose solution (solvent) as a control, adriamycin (ADR)-including control liposomes (liposomes including the anticancer agent but free of any angiogenesis-specific peptide of the invention), a free ADR solution prepared by dissolving the anticancer agent ADR in a concentration of 15 mg/kg (mouse) in 0.3 M glucose, and the ADR-including, angiogenesis-specific peptide-modified liposomes of the invention as prepared above in (1) were respectively administered into the tail vein. In the test, 5 tumor-bearing mice were used in each group.
# The antitumor effect of each agent administered was evaluated by examining, from 5 days after tumor implantation, the tumor volume as an indicator of tumor growth and the mouse body weight change as well as the survival period (days) as an indicator of side effect, in a similar manner as in Example 4 (2).
# In the figure, the ordinate denotes the tumor volume and the ascissa denotes the number of days after tumor implantation. […]
structure (smiles),measurement,value
"COc1cccc2c1C(=O)c1c(O)c3c(c(O)c1C2=O)C[C@@](O)(C(=O)CO)C[C@@H]3O[C@H]1C[C@H](N)[C@H](O)[C@H](C)O1 [free ADR solution, adriamycin]",death of mice,all mice died
